The values that follow come from US20070112176A1, “Lipid membrane structure containing anti-mt-mmp monoclonal antibody” (DAIICHI PHARMACEUTICAL CO., LTD., priority 2003, published 2007).

For the test, the system named is HT1080 cells. Description: Cytostatic test of liposomes with various antibody binding ratios, Test Example 6. The note with it: control group; free DOX 100 μg/mL, used as start value. It counts as cell-based, human. On the procedure: According to the method described in Test Example 2-1), the cytostatic ability of various antibody-binding liposomes was evaluated by using the HT1080 cells. The cells were adhered to a 96-well plate, then added with anti-MT1-MMP monoclonal antibody (clone number: 222-1D8)-binding and anticancer agent-encapsulating liposomes (Fab′(222-1D8)-DOX-LP), and cultured for 1 hour. After the culture, the cells were washed, added with a fresh medium, and further cultured for 24 hours. After the cells were washed and cultured for 24 hours, a cell counting assay was performed, and A450 serving as an index of viable cell count was plotted. Means±S.D. (n=4) was indicated for each group. As control, only the medium (control), anticancer agent-encapsulating liposomes not bound with antibody (DOX-LP (Preparation Example (11)) or the anticancer agent alone (free DOX) was added instead of Fab′(222-1D8)-DOX-LP. A group in which only the medium was similarly treated without adding the cells was used as a blank. It was confirmed by multiple times of experiments that the start value used in the calculation of inhibitory rate and the like in Test Example 2 was not substantially different from the absorbance obtained with 100 μg/mL of DOX alone (free DOX) used as the sample, and therefore the value obtained for the 100 μg/mL free DOX group was used as the start value. […]

As for `COc1cccc2c1C(=O)c1c(O)c3c(c(O)c1C2=O)C[C@@](O)(C(=O)CO)C[C@@H]3O[C@H]1C[C@H](N)[C@H](O)[C@H](C)O1` [Free DOX, doxorubicin], the “Cytostatic ratio for HT1080 cells” value was found to be 100%.
